≈ marks a conversion by molar mass, not a printed value. Read-outs that look alike come from different tables or passages of the source.
Assays:
[1] = test system: E. coli cells; conditions: cited from earlier work
[2] = test system: E. coli cells, overexpression (gyrA/gyrB) (+/+); assay: microbe, parasite or virus in culture; type: cell-based; conditions: Escherichia coli, induction + (IPTG)
[3] = test system: gyrR strains derived from E. coli JW5503; assay: MIC against the five gyrR strains derived from E. coli JW5503; type: cell-based; conditions: Escherichia coli, read-out: MIC against gyrR strains
[4] = target: DNA gyrase ATPase activity (Escherichia coli, UniProt P0AES4+P0AES6); assay: ATPase activity of DNA gyrase; type: biochemical, E. coli; conditions: up to a concentration of 100 μM
[5] = test system: E. coli JW5503 harboring pCA24N-gyrB; type: cell-based
[6] = test system: E. coli, Edwardsiella tarda, S. enterica enterica Typhimurium, and S. flexneri; assay: MIC against susceptible gram-negative strains; type: cell-based; conditions: read-out: MICs against susceptible gram-negative strains
[7] = test system: gram-positive strains; assay: MIC against all 9 gram-positive strains tested; type: cell-based; conditions: read-out: MIC values against all 9 gram-positive strains tested
[8] = test system: E. coli JW5503; conditions: cited from earlier work
[9] = test system: E. coli BW25113; conditions: wild-type E. coli BW25113; cited from earlier work

DNA gyrase ATPase activity, sequence (P0AES4 whole entry, one chain of several): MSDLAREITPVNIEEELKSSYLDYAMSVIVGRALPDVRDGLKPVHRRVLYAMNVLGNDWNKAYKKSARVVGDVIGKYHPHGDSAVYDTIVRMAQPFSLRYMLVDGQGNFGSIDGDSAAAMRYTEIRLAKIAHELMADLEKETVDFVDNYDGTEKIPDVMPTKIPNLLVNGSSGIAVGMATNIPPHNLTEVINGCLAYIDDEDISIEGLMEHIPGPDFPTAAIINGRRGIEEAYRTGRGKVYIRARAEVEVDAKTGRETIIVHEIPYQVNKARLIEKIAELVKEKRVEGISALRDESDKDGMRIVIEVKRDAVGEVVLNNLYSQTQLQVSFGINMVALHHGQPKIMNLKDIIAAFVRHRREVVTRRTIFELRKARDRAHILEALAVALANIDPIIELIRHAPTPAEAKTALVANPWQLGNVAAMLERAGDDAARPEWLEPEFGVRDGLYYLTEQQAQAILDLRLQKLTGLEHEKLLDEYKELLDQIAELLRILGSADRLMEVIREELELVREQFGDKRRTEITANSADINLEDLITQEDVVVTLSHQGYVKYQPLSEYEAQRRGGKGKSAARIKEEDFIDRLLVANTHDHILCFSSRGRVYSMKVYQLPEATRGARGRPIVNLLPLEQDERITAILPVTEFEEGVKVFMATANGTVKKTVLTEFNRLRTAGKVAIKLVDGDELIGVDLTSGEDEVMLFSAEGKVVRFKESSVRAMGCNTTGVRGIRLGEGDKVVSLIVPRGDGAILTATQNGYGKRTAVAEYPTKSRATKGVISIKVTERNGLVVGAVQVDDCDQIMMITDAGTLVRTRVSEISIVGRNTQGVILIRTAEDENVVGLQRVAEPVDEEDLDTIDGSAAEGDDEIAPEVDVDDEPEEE

## O=C(O)c1cn(C2CC2)c2cc(N3CCNCC3)c(F)cc2c1=O [Compound 1, Ciprofloxacin]
[1]; E. coli cells before overexpression of DNA gyrase
  MIC: 0.009 µg/mL (≈ 0.0272 µM)
[1]; E. coli cells with overexpression of DNA gyrase
  MIC: 0.002 µg/mL (≈ 0.00604 µM)
[2]
  MIC: 0.002 µg/mL
[3]
  MIC: 1.6 to 3.2 µg/mL (≈ 4.83 to 9.66 µM)
[4]
  inhibition of ATPase activity: did not observe a decrease in ATPase activity

## CO[C@@H]1[C@@H](OC(N)=O)[C@@H](O)[C@H](Oc2ccc3c(O)c(NC(=O)c4ccc(O)c(CC=C(C)C)c4)c(=O)oc3c2C)OC1(C)C [Compound 2, Novobiocin]
[5]
  highest concentration at which cultures grew: 51 µg/mL

## N#Cc1cccc(S(=O)(=O)N[C@@H]2CCN(Cc3ccc(-c4ccccc4)cc3)C2)c1 [Compound 3, (R)-N-(1-([1,1′-biphenyl]-4-ylmethyl)pyrrolidin-3-yl)-3-cyanobenzenesulfonamide]
[6]
  MIC: 2 to 16 µg/mL (≈ 4.79 to 38.3 µM)
[4]
  inhibition of ATPase activity: did not inhibit the ATPase activity

## Cc1ccc(C(F)(F)F)cc1S(=O)(=O)N[C@@H]1CCN(Cc2ccc(OC3CC3)cc2)C1 [Compound 4, (R)-N-(1-(4-cyclopropoxybenzyl)pyrrolidin-3-yl)-2-methyl-5-(trifluoromethyl)benzenesulfonamide]
[6]
  MIC: 2 to 16 µg/mL (≈ 4.4 to 35.2 µM)
[7]
  MIC: 4 to 16 µg/mL (≈ 8.8 to 35.2 µM)

## Cc1ccc(C#N)cc1S(=O)(=O)N[C@@H]1CCN(Cc2ccc(-c3ccccc3)cc2)C1 [Compound 5, (R)-N-(1-([1,1′-biphenyl]-4-ylmethyl)pyrrolidin-3-yl)-5-cyano-2-methylbenzenesulfonamide]
[6]
  MIC: 2 to 16 µg/mL (≈ 4.63 to 37.1 µM)

## Cc1ccc(F)cc1S(=O)(=O)N[C@@H]1CCN(Cc2ccc(-c3ccccc3)cc2)C1 [Compound 8, gyramide C]
[8]
  MIC: 0.1 µg/mL (≈ 0.236 µM)
[9]
  MIC: > 160 µg/mL

From publication PMC6051542 (MedChemComm, 2017)
